Tests used:
Assay in all cases: scanMAX Kinase assay panel
Type in all cases: binding
Conditions in all cases: read-out: % control
[1] = biological target: PKAC-beta (Homo sapiens (Human), UniProt P22694)
Outline: (§1)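 Panel: scanMAX. Metric: % control. The 100% anchor is DMSO and the 0% anchor is the positive control.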

[2] = biological target: CDC2L1 (Homo sapiens (Human), UniProt P21127)
Outline: as §1

[3] = biological target: CDK2 (Homo sapiens (Human), UniProt P24941)
Outline: as §1

[4] = biological target: HIPK1 (Homo sapiens (Human), UniProt Q86Z02)
Outline: as §1

[5] = biological target: BRSK2 (Homo sapiens (Human), UniProt Q8IWQ3)
Outline: as §1

[6] = biological target: CDK11 (Homo sapiens (Human), UniProt Q9BWU1)
Outline: as §1

[7] = biological target: OSR1 (Homo sapiens (Human), UniProt O95747)
Outline: as §1

[8] = biological target: FLT4 (Homo sapiens (Human), UniProt P35916)
Outline: as §1

[9] = biological target: CAMKK1 (Homo sapiens (Human), UniProt Q8N5S9)
Outline: as §1

[10] = biological target: ABL1(Y253F)-phosphorylated (Homo sapiens (Human), UniProt P00519, Y253F)
Outline: as §1

[11] = biological target: MYO3B (Homo sapiens (Human), UniProt Q8WXR4)
Outline: as §1

[12] = biological target: MARK4 (Homo sapiens (Human), UniProt Q96L34)
Outline: as §1

[13] = biological target: YANK1 (Homo sapiens (Human), UniProt Q8WU08)
Outline: as §1

[14] = biological target: YSK1 (Homo sapiens (Human), UniProt O00506)
Outline: as §1

[15] = biological target: FLT3(K663Q) (Homo sapiens (Human), UniProt P36888, K663Q)
Outline: as §1

[16] = biological target: IRAK4 (Homo sapiens (Human), UniProt Q9NWZ3)
Outline: as §1

[17] = biological target: EGFR(S752-I759del) (Homo sapiens (Human), UniProt P00533, DEL752-759)
Outline: as §1

[18] = biological target: ABL1(H396P)-phosphorylated (Homo sapiens (Human), UniProt P00519, H396P)
Outline: as §1

[19] = biological target: MYLK (Homo sapiens (Human), UniProt Q15746)
Outline: as §1

[20] = biological target: PRKR (Homo sapiens (Human), UniProt P19525)
Outline: as §1

[21] = biological target: PRKCE (Homo sapiens (Human), UniProt Q02156)
Outline: as §1

[22] = biological target: ABL1(Q252H)-phosphorylated (Homo sapiens (Human), UniProt P00519, Q252H)
Outline: as §1

[23] = biological target: TYRO3 (Homo sapiens (Human), UniProt Q06418)
Outline: as §1

[24] = biological target: NEK6 (Homo sapiens (Human), UniProt Q9HC98)
Outline: as §1

[25] = biological target: RIOK2 (Homo sapiens (Human), UniProt Q9BVS4)
Outline: as §1

[26] = biological target: RET (Homo sapiens (Human), UniProt P07949)
Outline: as §1

[27] = biological target: YANK3 (Homo sapiens (Human), UniProt Q86UX6)
Outline: as §1

[28] = biological target: ERK2 (Homo sapiens (Human), UniProt P28482)
Outline: as §1

[29] = biological target: EGFR(L747-S752del, P753S) (Homo sapiens (Human), UniProt P00533, DEL747-752/P753S)
Outline: as §1

[30] = biological target: RIPK4 (Homo sapiens (Human), UniProt P57078)
Outline: as §1

[31] = biological target: ERK5 (Homo sapiens (Human), UniProt Q13164)
Outline: as §1

[32] = biological target: CAMK1D (Homo sapiens (Human), UniProt Q8IU85)
Outline: as §1

[33] = biological target: LTK (Homo sapiens (Human), UniProt P29376)
Outline: as §1

[34] = biological target: ABL1(T315I)-phosphorylated (Homo sapiens (Human), UniProt P00519, T315I)
Outline: as §1

[35] = biological target: MKK7 (Homo sapiens (Human), UniProt O14733)
Outline: as §1

[36] = biological target: FLT1 (Homo sapiens (Human), UniProt P17948)
Outline: as §1

[37] = biological target: PCTK2 (Homo sapiens (Human), UniProt Q00537)
Outline: as §1

[38] = biological target: PRKX (Homo sapiens (Human), UniProt P51817)
Outline: as §1

Sequence of FLT1 (P17948 27-1338): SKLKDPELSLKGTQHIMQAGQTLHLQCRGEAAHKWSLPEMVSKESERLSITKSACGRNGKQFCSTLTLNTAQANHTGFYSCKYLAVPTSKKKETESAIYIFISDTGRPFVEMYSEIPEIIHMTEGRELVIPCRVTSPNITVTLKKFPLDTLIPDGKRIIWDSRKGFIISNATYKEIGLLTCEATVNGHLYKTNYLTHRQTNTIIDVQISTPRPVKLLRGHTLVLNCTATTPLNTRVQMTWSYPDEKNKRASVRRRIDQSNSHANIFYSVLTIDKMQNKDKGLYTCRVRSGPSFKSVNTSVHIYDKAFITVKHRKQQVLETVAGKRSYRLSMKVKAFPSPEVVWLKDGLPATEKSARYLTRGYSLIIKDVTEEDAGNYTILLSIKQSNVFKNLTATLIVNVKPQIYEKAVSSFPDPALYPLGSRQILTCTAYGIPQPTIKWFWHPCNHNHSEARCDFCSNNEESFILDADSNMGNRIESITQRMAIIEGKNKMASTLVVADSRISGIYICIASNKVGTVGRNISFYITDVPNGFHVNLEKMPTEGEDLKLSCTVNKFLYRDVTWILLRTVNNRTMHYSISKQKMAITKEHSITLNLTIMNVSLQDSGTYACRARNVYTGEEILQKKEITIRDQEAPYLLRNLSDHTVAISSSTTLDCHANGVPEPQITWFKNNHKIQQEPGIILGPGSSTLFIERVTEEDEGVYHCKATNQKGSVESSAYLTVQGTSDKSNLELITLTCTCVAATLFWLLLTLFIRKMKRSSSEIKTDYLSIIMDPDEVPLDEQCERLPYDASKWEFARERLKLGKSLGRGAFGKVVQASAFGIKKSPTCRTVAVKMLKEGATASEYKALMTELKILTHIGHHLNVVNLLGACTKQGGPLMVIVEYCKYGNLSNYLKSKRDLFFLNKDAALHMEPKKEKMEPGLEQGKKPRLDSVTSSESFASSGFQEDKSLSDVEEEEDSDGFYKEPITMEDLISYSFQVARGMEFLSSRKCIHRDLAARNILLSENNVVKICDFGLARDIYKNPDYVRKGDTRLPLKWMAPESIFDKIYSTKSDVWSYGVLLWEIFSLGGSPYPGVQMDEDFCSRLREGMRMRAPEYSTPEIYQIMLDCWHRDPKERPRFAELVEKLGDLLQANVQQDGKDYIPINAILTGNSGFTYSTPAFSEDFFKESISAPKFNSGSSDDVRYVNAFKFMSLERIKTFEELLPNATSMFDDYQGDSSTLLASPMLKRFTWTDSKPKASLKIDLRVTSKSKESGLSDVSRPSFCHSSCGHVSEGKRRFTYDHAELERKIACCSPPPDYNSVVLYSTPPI
Sequence of RIPK4 (P57078 whole entry): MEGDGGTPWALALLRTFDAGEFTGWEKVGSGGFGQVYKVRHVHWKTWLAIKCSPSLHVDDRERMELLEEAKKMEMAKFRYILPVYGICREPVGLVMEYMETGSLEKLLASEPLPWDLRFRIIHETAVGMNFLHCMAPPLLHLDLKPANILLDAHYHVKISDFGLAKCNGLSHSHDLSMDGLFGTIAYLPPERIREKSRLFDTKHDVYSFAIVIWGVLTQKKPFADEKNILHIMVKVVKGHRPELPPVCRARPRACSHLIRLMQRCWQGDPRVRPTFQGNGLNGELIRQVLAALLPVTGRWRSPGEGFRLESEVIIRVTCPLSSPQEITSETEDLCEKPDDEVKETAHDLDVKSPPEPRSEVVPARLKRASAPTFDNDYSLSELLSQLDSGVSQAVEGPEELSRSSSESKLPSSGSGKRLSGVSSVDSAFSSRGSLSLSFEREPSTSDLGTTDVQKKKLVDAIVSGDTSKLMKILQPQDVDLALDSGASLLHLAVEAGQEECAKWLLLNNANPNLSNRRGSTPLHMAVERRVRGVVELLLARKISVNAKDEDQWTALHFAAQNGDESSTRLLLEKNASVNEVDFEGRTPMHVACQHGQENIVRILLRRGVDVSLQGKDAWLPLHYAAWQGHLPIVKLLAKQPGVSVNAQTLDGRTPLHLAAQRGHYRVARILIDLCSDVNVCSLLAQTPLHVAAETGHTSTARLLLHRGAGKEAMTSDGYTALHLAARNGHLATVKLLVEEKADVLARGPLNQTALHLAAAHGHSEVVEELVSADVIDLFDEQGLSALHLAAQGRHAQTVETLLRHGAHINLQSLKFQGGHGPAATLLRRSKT
Sequence of ERK5 (Q13164 whole entry): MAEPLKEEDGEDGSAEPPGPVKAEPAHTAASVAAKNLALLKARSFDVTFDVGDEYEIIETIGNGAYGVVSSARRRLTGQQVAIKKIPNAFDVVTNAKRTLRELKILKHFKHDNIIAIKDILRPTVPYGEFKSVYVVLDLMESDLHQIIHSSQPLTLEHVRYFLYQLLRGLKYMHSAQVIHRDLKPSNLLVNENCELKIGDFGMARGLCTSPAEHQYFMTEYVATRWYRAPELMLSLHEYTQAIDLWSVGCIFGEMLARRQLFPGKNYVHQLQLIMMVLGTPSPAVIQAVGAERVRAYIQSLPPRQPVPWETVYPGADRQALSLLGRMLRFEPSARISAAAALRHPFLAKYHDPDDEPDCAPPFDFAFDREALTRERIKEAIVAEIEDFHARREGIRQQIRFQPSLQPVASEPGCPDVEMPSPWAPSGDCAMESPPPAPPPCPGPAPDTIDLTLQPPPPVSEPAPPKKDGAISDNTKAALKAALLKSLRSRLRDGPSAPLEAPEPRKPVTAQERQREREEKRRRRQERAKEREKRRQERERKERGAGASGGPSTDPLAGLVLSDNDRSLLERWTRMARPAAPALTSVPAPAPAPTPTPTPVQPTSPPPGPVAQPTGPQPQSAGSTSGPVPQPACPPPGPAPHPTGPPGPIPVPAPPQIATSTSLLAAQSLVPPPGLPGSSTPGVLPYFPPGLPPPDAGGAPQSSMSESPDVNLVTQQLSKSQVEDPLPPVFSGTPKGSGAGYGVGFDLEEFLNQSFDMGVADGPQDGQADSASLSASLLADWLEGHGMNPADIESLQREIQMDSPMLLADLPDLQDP
Sequence of CAMK1D (Q8IU85 whole entry): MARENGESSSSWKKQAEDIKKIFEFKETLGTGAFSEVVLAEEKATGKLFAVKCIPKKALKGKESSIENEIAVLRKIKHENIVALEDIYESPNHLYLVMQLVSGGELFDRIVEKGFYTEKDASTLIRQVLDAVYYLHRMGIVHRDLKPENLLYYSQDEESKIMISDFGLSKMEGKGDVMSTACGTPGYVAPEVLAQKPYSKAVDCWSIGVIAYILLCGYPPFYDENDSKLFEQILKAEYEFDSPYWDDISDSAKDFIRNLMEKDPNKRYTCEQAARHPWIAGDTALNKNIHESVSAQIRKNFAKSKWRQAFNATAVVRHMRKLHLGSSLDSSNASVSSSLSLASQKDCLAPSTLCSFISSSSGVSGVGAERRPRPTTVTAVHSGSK
Sequence of YANK1 (Q8WU08 whole entry): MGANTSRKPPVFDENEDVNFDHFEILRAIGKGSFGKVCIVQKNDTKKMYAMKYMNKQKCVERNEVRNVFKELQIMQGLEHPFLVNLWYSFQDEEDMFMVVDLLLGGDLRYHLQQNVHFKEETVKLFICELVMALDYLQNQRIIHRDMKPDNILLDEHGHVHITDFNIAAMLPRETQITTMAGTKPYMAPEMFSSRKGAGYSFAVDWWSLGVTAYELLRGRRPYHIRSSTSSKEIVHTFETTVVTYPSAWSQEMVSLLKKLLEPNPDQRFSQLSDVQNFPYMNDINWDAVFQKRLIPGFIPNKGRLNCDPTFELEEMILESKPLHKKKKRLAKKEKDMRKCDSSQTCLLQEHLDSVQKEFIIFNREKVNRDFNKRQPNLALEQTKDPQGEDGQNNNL
Sequence of PRKX (P51817 whole entry): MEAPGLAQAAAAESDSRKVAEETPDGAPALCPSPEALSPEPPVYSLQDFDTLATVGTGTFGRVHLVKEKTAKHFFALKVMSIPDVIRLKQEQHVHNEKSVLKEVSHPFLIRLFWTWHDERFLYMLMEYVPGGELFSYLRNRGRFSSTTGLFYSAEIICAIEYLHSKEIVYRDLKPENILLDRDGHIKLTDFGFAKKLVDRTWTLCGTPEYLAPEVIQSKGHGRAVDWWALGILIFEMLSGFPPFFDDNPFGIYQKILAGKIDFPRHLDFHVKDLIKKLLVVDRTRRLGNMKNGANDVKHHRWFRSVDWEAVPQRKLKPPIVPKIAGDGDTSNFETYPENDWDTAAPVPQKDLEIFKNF
Sequence of OSR1 (O95747 whole entry): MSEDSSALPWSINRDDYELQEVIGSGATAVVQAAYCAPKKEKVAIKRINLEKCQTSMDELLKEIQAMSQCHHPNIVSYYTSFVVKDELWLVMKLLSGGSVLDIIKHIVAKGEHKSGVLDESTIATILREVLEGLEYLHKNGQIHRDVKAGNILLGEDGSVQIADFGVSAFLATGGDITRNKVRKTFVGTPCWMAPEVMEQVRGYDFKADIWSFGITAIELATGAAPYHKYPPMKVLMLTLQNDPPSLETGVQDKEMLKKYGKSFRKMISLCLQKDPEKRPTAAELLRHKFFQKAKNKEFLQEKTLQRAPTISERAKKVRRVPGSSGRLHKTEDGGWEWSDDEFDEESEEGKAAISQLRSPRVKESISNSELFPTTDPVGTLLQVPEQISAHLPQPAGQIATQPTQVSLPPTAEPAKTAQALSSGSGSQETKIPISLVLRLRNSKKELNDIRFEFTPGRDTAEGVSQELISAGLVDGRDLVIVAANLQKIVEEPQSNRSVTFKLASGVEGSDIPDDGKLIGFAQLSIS
Sequence of NEK6 (Q9HC98 whole entry): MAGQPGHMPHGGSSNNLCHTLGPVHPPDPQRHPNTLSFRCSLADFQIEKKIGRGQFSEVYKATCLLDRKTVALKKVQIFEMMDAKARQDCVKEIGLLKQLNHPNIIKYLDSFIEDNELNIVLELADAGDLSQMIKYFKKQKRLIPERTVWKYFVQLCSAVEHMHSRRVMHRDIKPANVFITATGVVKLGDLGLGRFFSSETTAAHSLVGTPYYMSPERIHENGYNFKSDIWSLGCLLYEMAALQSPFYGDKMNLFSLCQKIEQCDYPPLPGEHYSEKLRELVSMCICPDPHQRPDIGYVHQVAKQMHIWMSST

Compound | remaining binding at 1 µM [1] | remaining binding at 1 µM [2] | remaining binding at 1 µM [3] | remaining binding at 1 µM [4] | remaining binding at 1 µM [5] | remaining binding at 1 µM [6] | remaining binding at 1 µM [7] | remaining binding at 1 µM [8] | remaining binding at 1 µM [9] | remaining binding at 1 µM [10] | remaining binding at 1 µM [11] | remaining binding at 1 µM [12] | remaining binding at 1 µM [13] | remaining binding at 1 µM [14] | remaining binding at 1 µM [15] | remaining binding at 1 µM [16] | remaining binding at 1 µM [17] | remaining binding at 1 µM [18] | remaining binding at 1 µM [19] | remaining binding at 1 µM [20] | other results
CCNc1cc(Nc2ccc(C(=O)N3CCC(N4CCOCC4)CC3)cc2OC)nc2[nH]cc(C(F)(F)F)c12 [Example 57, (4-((4-(ethylamino)-3-(trifluoromethyl)-1H-pyrrolo[2,3-b]pyridin-6-yl)amino)-3-methoxyphenyl) (4-morpholinopiperidin-1-yl)methanone] | 92% | 90% | 100% | 54% | 79% | 67% | 82% | 99% | 59% | 100% | 83% | 76% | 100% | 73% | 94% | 100% | 75% | 100% | 7.8% | 93% | remaining binding at 1 µM [21]: 64%; remaining binding at 1 µM [22]: 100%; remaining binding at 1 µM [23]: 96%; remaining binding at 1 µM [24]: 84%; remaining binding at 1 µM [25]: 100%; remaining binding at 1 µM [26]: 100%; remaining binding at 1 µM [27]: 71%; remaining binding at 1 µM [28]: 74%; remaining binding at 1 µM [29]: 97%; remaining binding at 1 µM [30]: 95%; remaining binding at 1 µM [31]: 50%; remaining binding at 1 µM [32]: 73%; remaining binding at 1 µM [33]: 20%; remaining binding at 1 µM [34]: 96%; remaining binding at 1 µM [35]: 93%; remaining binding at 1 µM [36]: 94%; remaining binding at 1 µM [37]: 98%; remaining binding at 1 µM [38]: 80%
CCNc1cc(Nc2ccc(C(=O)N3CCC(N4CCOCC4)CC3)cc2OC)nc2[nH]cc(C#N)c12 [Example 18, 4-(ethylamino)-6-((2-methoxy-4-(4-morpholinopiperidine-1-carbonyl)phenyl)amino)-1H-pyrrolo[2,3-b]pyridine-3-carbonitrile] | 66% | 100% | 100% | 63% | 96% | 98% | 41% | 100% | 70% | 89% | 73% | 80% | 100% | 99% | 84% | 99% | 99% | 85% | 6% | 95% | remaining binding at 1 µM [21]: 77%; remaining binding at 1 µM [22]: 100%; remaining binding at 1 µM [23]: 80%; remaining binding at 1 µM [24]: 97%; remaining binding at 1 µM [25]: 63%; remaining binding at 1 µM [26]: 100%; remaining binding at 1 µM [27]: 96%; remaining binding at 1 µM [28]: 94%; remaining binding at 1 µM [29]: 92%; remaining binding at 1 µM [30]: 69%; remaining binding at 1 µM [31]: 20%; remaining binding at 1 µM [32]: 31%; remaining binding at 1 µM [33]: 6.2%; remaining binding at 1 µM [34]: 100%; remaining binding at 1 µM [35]: 89%; remaining binding at 1 µM [36]: 46%; remaining binding at 1 µM [37]: 100%; remaining binding at 1 µM [38]: 92%

— US11117892B2, “Pyrrolo-pyridine derivative compound, method for preparing same, and pharmaceutical composition containing same as active ingredient for prevention or treatment of protein kinase-related diseases” (DAEGU-GYEONGBUK MEDICAL INNOVATION FOUNDATION, priority 2017, dated 2021)
